Columns and labels:
[1] = test system: GFP-α-tubulin expressing SCC114 cells; test: Treatment of GFP-α-tubulin expressing SCC114 cells with griseofulvin analogues (inhibition of centrosomal clustering); format: cell-based; conditions: Homo sapiens, Table 1, analogues diluted 100 micromolar to 10 nanomolar
Procedure: Cell Culture. All cell lines were cultured in Dulbecco's modified Eagle's Medium (DMEM; PAA Laboratories, Pasching, Austria) supplemented with 10% FCS (PAA). SCC114 cells stably expressing GFP-α-tubulin were generated by transfection (Eugene 6, Roche Diagnostics, Mannheim, Germany) of the transgene in pEGFP-C1 (Clontech, Heidelberg, Germany) and maintained under selective pressure by addition of geniticin (Invitrogen, Karlsruhe, Germany) Primary normal human epidermal keratinocytes (NHEK; PromoCell, Heidelberg, Germany) were cultured in Keratinocyte Growth Medium 2 (PromoCell). When indicated a griseofulvin analogue was added to the culture medium. The griseofulvin analogue was dissolved in DMSO (Sigma). In all experiments, the final DMSO concentration was 0.1%.
Treatment of GFP-α-tubulin expressing SCC114 cells with griseofulvin analogues. Analogues were dissolved in DMSO/water and diluted to span a concentration range of 100 micromolar to 10 nanomolar.

| IC50 [1] | melting point | SMILES |
| --- | --- | --- |
| 3.4 µM | 173 to 175 °C | COc1cc(OC)c2c(c1Cl)O[C@]1(C2=O)C(OCc2ccc(Cl)cc2)=CC(=O)C[C@H]1C [Compound 1, (2S,6′R)-(7-Chloro-4,6-dimethoxy-benzofuran-3-one)-2-spiro-1′-(2′-(4-chlorobenzyloxy)-6′-methyl-cyclohex-2′-ene-4′-one)] |
| 3.3 µM | 166 to 168 °C | COc1cc(OC)c2c(c1Cl)O[C@]1(C2=O)C(OCc2ccc(I)cc2)=CC(=O)C[C@H]1C [Compound 2, (2S,6′R)-(7-Chloro-4,6-dimethoxy-benzofuran-3-one)-2-spiro-1′-(2′-(4-iodobenzyloxy)-6′-methyl-cyclohex-2′-ene-4′-one)] |
| – | 171 to 174 °C | COc1cc(OC)c2c(c1Cl)O[C@]1(C2=O)C(OCc2cccc(I)c2)=CC(=O)C[C@H]1C [Compound 3, (2S,6′R)-(7-Chloro-4,6-dimethoxy-benzofuran-3-one)-2-spiro-1′-(2′-(3-iodobenzyloxy)-6′-methyl-cyclohex-2′-ene-4′-one)] |
| 5.8 µM | 167 to 169 °C | COc1cc(OC)c2c(c1Cl)O[C@]1(C2=O)C(OCc2ccccc2I)=CC(=O)C[C@H]1C [Compound 4, (2S,6′R)-(7-Chloro-4,6-dimethoxy-benzofuran-3-one)-2-spiro-1′-(2′-(2-iodobenzyloxy)-6′-methyl-cyclohex-2′-ene-4′-one)] |
| 0.9 µM | 176 to 178 °C | COc1cc(OC)c2c(c1Cl)O[C@]1(C2=O)C(OCc2ccc(C)cc2)=CC(=O)C[C@H]1C [Compound 5, (2S,6′R)-(7-Chloro-4,6-dimethoxy-benzofuran-3-one)-2-spiro-1′-(6′-methyl-2′-(4-methylbenzyloxy)-cyclohex-2′-ene-4′-one)] |
| 1.2 µM | – | COc1cc(OC)c2c(c1Cl)O[C@]1(C2=O)C(OCc2ccc(CO)cc2)=CC(=O)C[C@H]1C [Compound 6, (2S,6′R)-(7-Chloro-4,6-dimethoxy-benzofuran-3-one)-2-spiro-1′-(6′-methyl-2′-(4-hydroxymethylbenzyloxy)-cyclohex-2′-ene-4′-one)] |
| 4.7 µM | – | COc1cc(OC)c2c(c1Cl)O[C@]1(C2=O)C(OCc2ccc(CBr)cc2)=CC(=O)C[C@H]1C [Compound 7, (2S,6′R)-(7-Chloro-4,6-dimethoxy-benzofuran-3-one)-2-spiro-1′-(6′-methyl-2′-(4-bromo-methylbenzyloxy)-cyclohex-2′-ene-4′-one)] |
| 9.1 µM | – | COc1cc(OC)c2c(c1Cl)O[C@]1(C2=O)C(OCc2ncc(C)c([N+](=O)[O-])c2C)=CC(=O)C[C@H]1C [Compound 8, (2S,6′R)-(7-Chloro-4,6-dimethoxy-benzofuran-3-one)-2-spiro-1′-(6′-methyl-2′-((3,5-dimethyl-4-nitro-pyrid-2-yl)methyloxy)-cyclohex-2′-ene-4′-one)] |
| 3.2 µM | – | COc1cc(OC)c2c(c1Cl)O[C@]1(C2=O)C(OCc2ccc(-c3ccccc3)cc2)=CC(=O)C[C@H]1C [Compound 9, (2S,6′R)-(7-Chloro-4,6-dimethoxy-benzofuran-3-one)-2-spiro-1′-(2′-(4-biphenylmethoxy)-6′-methyl-cyclohex-2′-ene-4′-one)] |
| 1.5 µM | – | COc1cc(OC)c2c(c1Cl)O[C@]1(C2=O)C(Oc2ccccc2)=CC(=O)C[C@H]1C [Compound 10, (2S,6′R)-(7-Chloro-4,6-dimethoxy-benzofuran-3-one)-2-spiro-1′-(6′-methyl-2′-phenoxy-cyclohex-2′-ene-4′-one)] |
| 2.1 µM | 98 to 100 °C | CCCOC1=C(I)C(=O)C[C@@H](C)[C@]12Oc1c(Cl)c(OC)cc(OC)c1C2=O [Compound 11, (2S,6′R)-(7-Chloro-4,6-dimethoxy-benzofuran-3-one)-2-spiro-1′-(3′-iodo-6′-methyl-2′-propoxy-cyclohex-2′-ene-4′-one)] |

— patent US9108941B2, “Griseofulvin analogues for the treatment of cancer by inhibition of centrosomal clustering” (DEUTSCHES KREBSFORSCHUNGSZENTRUM STIFTUNG DES OEFFENTLICHEN …, priority 2008, dated 2015)
